In patent US20100152284A1, “PREVENTION AND REVERSAL OF CHEMOTHERAPY-INDUCED PERIPHERAL NEUROPATHY” (NOVOGEN RESEARCH PTY LTD, priority 2006, published 2010):
Where “and” joins values, the source holds several entries; their conditions need not be identical. Equal values may be shown once.

Legend:
[1] = test system: differentiated PC12 cells; assay: Neurite length (longest neurite per neuron) in differentiated PC12 cells; type: cell-based
Protocol: Further to the above described analysis of cells containing neurites, the longest neurite per neuron present in each frame was measured using Image J open source software (NIH, USA).

PC12 cells = test system: PC12 cells
Protocol: A serial dilution was also conducted for phenoxodiol to determine the concentration which would not affect normal growth of the differentiated cells. […] Working concentrations were diluted in PC12 cell differentiation medium as above.

[2] = test system: differentiated PC12 cells; assay: Neurite toxicity: percentage of differentiated PC12 cells with neurites after 24 h incubation; details: for inhibition of neurite outgrowth, dose responsiveness: increasing concentrations, 24 hrs, FIG. 1; for reduction in the percentage of cells with neurites: strong dose; for reduction in cells with neurites compared to no treatment control: Example 2, p<0.001
Protocol: PC-12 cells were maintained in Dulbecco's Modified Eagle Media (DMEM; Gibco) with 10% calf serum (Turbo calf serum, Invitrogen), 5% horse serum (JRH Biosciences, Victoria, Australia) and 1% penicillin/streptomycin (Invitrogen) at 37° C., in a 5% CO2 atmosphere. Differentiation into neurons was achieved by seeding cells at a density of 15,000 cells/well in 24-well plates (Falcon Becton Dickinson), on 13 mm glass cover slips (Menzel Glaser, Germany) coated with laminin (Invitrogen) and poly-DL-ornithine (Sigma) in DMEM plus 1% horse serum and 50 ng/mL of nerve growth factor (NGF) (Sigma). The cells were incubated for 72 hours under differentiation conditions, before use in the neurite outgrowth assays below.
Working concentrations were diluted in PC12 cell differentiation medium as above. Treatments consisted of a 24 hour incubation in differentiation media with various concentrations of either agent.
Outgrowing projections were considered neurites if they were greater than a cell body width (10 μm), essentially as previously described. Images of all neurons in thirty randomly selected fields were digitally captured using an Olympus BX60 fluorescence microscope with a UPIanFI 40×/0.75 objective lens and a Zeiss Axiocam HRc digital camera and Zeiss Axiovision 3.1 software. Neurons in all fields were counted per condition and the number of cells with neurites expressed as a percentage of total cells present and error expressed as the standard error of the mean (sem). Each experiment was conducted in triplicate and the results pooled. Statistical significance of data was analysed using ANOVA followed by the Bonferroni post-hoc test.
Neurite toxicity was determined as the percent of cells comprising neurite outgrowths as described in Example 1.

[3] = patients receiving therapy; cited from earlier work
[4] = test system: differentiated PC12 cells; assay: βIII-tubulin immunocytochemistry of treated differentiated PC12 cells; type: cell-based; details: 24 hrs
Excerpt: Further, immunocytochemistry was used to visualise the neurite toxicity effects described above. To do so, following the treatment period, cells were washed with PBS, fixed with 4% paraformaldehyde and permeabilised with ice-cold methanol. Neurons were immunostained for the neuronal marker βIII-tubulin (Promega; Madison, Wisconson, USA) and a Cy3-conjugated anti-mouse antibody (Invitrogen) was used to visualise the staining.

[5] = test system: differentiated PC12 cells; assay: Recovery from cisplatin-induced neurite toxicity (24 h drug, 24 h wash-out, 24 h phenoxodiol); type: cell-based; details: after 48 hrs of recovery
Protocol: To determine whether phenoxodiol could have an effect on recovery from cisplatin- or paclitaxel-induced neurite toxicity by exacerbation, reversal, retardation or facilitation of repair, recovery experiments were performed. When conducting the recovery experiments, the concentrations of phenoxodiol tested were decreased by 1 log to 10 nM 100 nM and 1 μM.

## CC(=O)O[C@H]1C(=O)[C@@]2(C)[C@H]([C@H](OC(=O)c3ccccc3)[C@]3(O)C[C@H](OC(=O)[C@H](O)[C@@H](NC(=O)c4ccccc4)c4ccccc4)C(C)=C1C3(C)C)[C@]1(OC(C)=O)CO[C@@H]1C[C@@H]2O [paclitaxel]
[1]; paclitaxel alone, both concentrations used, p<0.001
  neurite length compared to the no treatment control: reduced neurite length
PC12 cells
  cytotoxicity at the chosen concentrations: did not produce cytotoxicity
[2]
  inhibition of neurite outgrowth, dose responsiveness: dose response in inhibition of neurite outgrowth
[2]; paclitaxel 0.156 μg/mL (0.18 μM), moderate dose, 24 h, Example 1
  decrease in the percentage of cells possessing neurites: 33%
[2]; paclitaxel 2.5 μg/mL (2.93 μM), 24 h, Example 1
  reduction in the percentage of cells with neurites: 73.6%
[2]; paclitaxel moderate dose (0.156 μg/ml)
  reduction in cells with neurites compared to no treatment control: 58%
[2]; paclitaxel strong dose (2.4 μg/ml/2.93 μM)
  reduction in cells with neurites compared to no treatment control: 72%

## N.N.[Cl][Pt][Cl] [cisplatin, Cis-diamine-dichloro-platinum]
[3]
  patients experiencing mild neuropathy: around 40%
  patients experiencing severe neuropathy: approximately 4%
[1]; cisplatin alone
  average neurite length of the remaining neurites: no significant effect on the average neurite length
[2]; cisplatin 1 μg/mL (3.33 μM), moderate dose, 24 h, Example 1
  reduction in percentage of cells with neurites: 31.9%
[2]; cisplatin 20 μg/mL (66.65 μM), 24 h, Example 1
  reduction in the percentage of cells with neurites: 65.8%
[2]; cisplatin alone 1 μg/ml, Example 2, ANOVA, t-test P<0.02
  neurite toxicity (percent neurites): non-significant (n.s.) trend for moderate toxicity
[2]; cisplatin alone 20 μg/ml, Example 2, P<0.001
  decrease in percent neurites compared to control: 42%
[2]
  inhibition of neurite outgrowth, dose responsiveness: dose response in inhibition of neurite outgrowth
[4]; cisplatin 20 μg/ml
  percentage of cells bearing neurites compared to control (βIII-tubulin staining): decreased the percentage of cells bearing neurites
[5]; cisplatin 1 μg/ml
  neurite toxicity compared to the no treatment control: no neurite toxicity
[5]; cisplatin 20 μg/ml, p<0.001
  neurite toxicity compared to the no treatment control: greater than 50%

## Oc1ccc(C2=Cc3ccc(O)cc3OC2)cc1 [phenoxodiol, 2H-1-benzopyran-7-0,1,3-[4-hydroxyphenyl]]
[1]; phenoxodiol 10 μM alone, p<0.001
  average neurite length compared to no treatment control: significant reductions in average neurite length
[1]; phenoxodiol 10 μM in combination with Cisplatin and Paclitaxel, p<0.001
  average neurite length compared to no treatment control: significant reductions in average neurite length
PC12 cells; 10 μM, data not shown
  cytotoxicity: considerable cytotoxicity
PC12 cells; doses up to 1 μM, data not shown
  effect on cell death or neurite outgrowth: no effect on cell death or neurite outgrowth
PC12 cells; serial dilution
  maximal concentration tested that did not affect survival of PC12 cells: 1 μM and 3.2 μg/ml
[2]; PC12 neuronal cell model vs a variety of cancer cell lines
  sensitivity of neurite toxicity to the protective effect relative to cytotoxic and anti-proliferative effects in cancer cell lines: approximately 10 fold
[2]; phenoxodiol 10 μM + cisplatin 1 μg/ml (P<0.01) or 20 μg/ml (P<0.001)
  neurite toxicity in combination, compared to phenoxodiol 10 μM alone: increased toxicity
[2]; phenoxodiol 10 μM + paclitaxel, both concentrations (P<0.001)
  neurite toxicity in combination, compared to phenoxodiol 10 μM alone: increased toxicity
[2]; phenoxodiol alone 10 μM, 24 h, P<0.001 vs no treatment control
  effect on percent neurites: significant neurite toxicity
[4]; phenoxodiol 10 μm
  cell and neurite toxicity in βIII-tubulin stained cells: Significant cell and neurite toxicity
